Values quoted from earlier work as cited in patent publication USRE31980E, “Olefinic derivatives of amino acids” (Merrell Toraude et Compagnie, priority 1983, dated 1985).

Assays:
[1] = system: γ-aminobutyric acid transaminase
[2] = system: brain level of γ-aminobutyric acid; details: in vivo

SMILES | inhibition of γ-aminobutyric acid transaminase (kind of inhibition), literature [1] | duration of the reversible effect (elevated brain levels of γ-aminobutyric acid), literature [2]
NCC#CC(=O)O [4-aminotetrolic acid] | competitive reversible inhibitor | 
CCCC(CCC)C(=O)O [n-dipropylacetate] | competitively inhibiting | about 2 hours
